In patent publication US7355047B2, “Substituted quinolone carboxylic acids, their derivatives, site of action, and uses thereof” (The Regents of the University of California, priority 2002, dated 2008):

What was measured:
[1] = system: GABAA receptor complex (GRC); test: [35S]TBPS binding dissociation, mouse forebrain; conditions: 2 nM [35S]TBPS
[2] = system: GABAA receptor complex (GRC); test: [35S]TBPS binding, rat cerebellum; conditions: 2 nM [35S]TBPS, 30 μM furosemide, FIG. 14
BZ receptors = test: [3H]Flunitrazepam binding, rat cortex; conditions: 0.2 nM [3H]flunitrazepam, FIG. 6
Description: [^3H]Flunitrazepam binding: assays were carried out under identical conditions, using an identical tissue preparation, as those used in the [^35S]TBPS binding assays with the exception that 1 μM GABA was added to all samples instead of 5 μM GABA. [^3H]Flunitrazepam, 0.2 nM (75 Ci/mmol, New England Nuclear, Boston, Mass.) was used to label BZ sites. Non-specific binding is defined as binding in the presence of 1 μM clonazepam. The data were evaluated by nonlinear regression to obtain IC50 and EC50 values.

[3] = system: GABA-gated chloride channels; test: Electrophysiological Assay 1, whole cell patch-clamp of hippocampal neurons; type: cell-based; conditions: C3 5 μM; GABA 10 μM; embryonic rat hippocampal neurons; FIG. 1
Description: Pregnant Sprague-Dawley rats, incubating embryos of 17-19 days gestation, were killed by cervical dislocation. The embryos were removed under aseptic conditions and the brains quickly excised and placed in Hank's balanced salt solution (HBSS, Gibco) at ambient room temperature (18-22° C.). The hippocampi were dissected out and chopped into fragments (˜2 mm^3) and transferred into an enzyme solution containing (in mM): NaCl 116, KCl 5.4, NaHCO3 26, NaH2PO4 1, CaCl2 1.5, MgSO4 1, EDTA 0.5, glucose 25, cysteine 1, and papain 20 U/ml (Sigma) and incubated at 37° C., 5% CO2, 100% relative humidity for 1 hr. Tissue fragments were washed in HBSS containing 1 mg/ml of bovine serum albumin (BSA) and 1 mg/ml of ovomucoid (both Sigma). Tissue was transferred into a further 3-4 ml of this solution and gently triturated into a single cell suspension using a fire-polished Pasteur pipette. The single cell suspension was layered on to 5 ml HBSS containing 10 mg/ml of BSA and 10 mg/ml of ovomucoid and centrifuged at 100× g for 10 min. […]
Agonist evoked membrane currents were recorded from hippocampal neurons using the whole cell configuration of the patch-clamp technique. […] Agonist-evoked whole cell currents were measured at their peak. Responses in the presence of drugs expressed as the arithmetic mean ±SEM of responses in the absence (control) or drugs.

[4] = target: T1, human GABAA receptors containing α2β2γ2 subunits (Homo sapiens, UniProt P18507+P47869+P47870); test: Electrophysiology Assay 2, GABAA subunit transfected HEK cells (α2β2γ2); type: cell-based; conditions: expressed human α2β2γ2 receptors; versus diazepam; FIG. 2
T1 construct: expressed in transfected cells; host or cells: HEK cells
Description: GABAA subunit transfected HEK cells are maintained at 37° C. and 5% CO2 using Dulbecco's Modified Eagle's Medium with L-glutamine and no sodium pyruvate (Irvine Scientific #9031, Irvine Calif.) and supplemented with 10% fetal bovine serum (Irvine Scientific #3000), 10 U/ml hygromycin B (Calbiochem #400051), and an antibiotic cocktail consisting of 100 μg/ml streptomycin sulfate, 0.25 μg/ml amphotericin B, 100 units/ml penicillin G (Gibco 15240-096, Gaithersburg Md.). Cells are passed by 2× wash with phosphate buffered saline (PBS) pH 7.4 and lifted using 1× trypsin/EDTA solution in PBS (0.5 mg/ml trypsin, 0.2 mg/ml EDTA, Irvine Scientific #9342) when confluency reaches ˜90%.
GABAA subunit transfected HEK cells are grown to ˜70% confluency on slide. Cells are transferred to a bath that is continuously perfused with extracellular saline. The extracellular medium contained 145 mM NaCl, 3 mM KCl, 1.5 mM CaCl2, 1 mM MgCl2, 5.5 mM d-glucose, and 10 mM HEPES, pH 7.4 at an osmolarity of 320-330 mosM. Recordings are performed at room temperature using the whole cell patch clamp technique. The patch pipette solution contained 147 mM N-methyl-D-glucamine hydrochloride, 5 mM CsCl, 5 mM K2ATP, 5 mM HEPES, 1 mM MgCl2, 0.1 mM CaCl2, and 1.1 mM EGTA, pH 7.2, at an osmolarity of 315 mosM. Pipette-to-bath resistance is typically 3-5 Mohms. […]

T1 sequence (P47869 29-451): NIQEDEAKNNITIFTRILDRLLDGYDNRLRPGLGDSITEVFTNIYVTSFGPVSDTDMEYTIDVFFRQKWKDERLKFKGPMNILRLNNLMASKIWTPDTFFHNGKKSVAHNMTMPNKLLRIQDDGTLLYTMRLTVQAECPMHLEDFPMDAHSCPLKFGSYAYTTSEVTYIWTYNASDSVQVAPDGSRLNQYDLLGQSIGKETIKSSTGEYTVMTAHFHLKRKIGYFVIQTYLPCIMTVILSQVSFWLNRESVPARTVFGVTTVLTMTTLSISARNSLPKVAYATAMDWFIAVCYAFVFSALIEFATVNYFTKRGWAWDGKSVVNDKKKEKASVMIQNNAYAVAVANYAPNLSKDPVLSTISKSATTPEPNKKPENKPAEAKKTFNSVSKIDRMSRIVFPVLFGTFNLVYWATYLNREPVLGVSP
T1 sequence (P47870 25-512 limits assumed): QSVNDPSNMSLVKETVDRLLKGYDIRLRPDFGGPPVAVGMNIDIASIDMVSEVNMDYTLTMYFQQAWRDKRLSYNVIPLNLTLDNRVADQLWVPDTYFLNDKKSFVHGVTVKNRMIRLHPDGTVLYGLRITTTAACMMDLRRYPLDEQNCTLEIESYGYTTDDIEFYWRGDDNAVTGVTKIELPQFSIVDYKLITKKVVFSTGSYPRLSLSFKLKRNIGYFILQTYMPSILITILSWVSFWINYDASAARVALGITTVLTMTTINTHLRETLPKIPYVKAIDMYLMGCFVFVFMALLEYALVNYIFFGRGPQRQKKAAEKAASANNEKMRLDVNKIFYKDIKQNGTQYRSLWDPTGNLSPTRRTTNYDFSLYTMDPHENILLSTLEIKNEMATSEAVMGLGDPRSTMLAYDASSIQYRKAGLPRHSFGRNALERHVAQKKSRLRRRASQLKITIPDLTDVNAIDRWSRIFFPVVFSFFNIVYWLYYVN
T1 sequence (P18507 40-475): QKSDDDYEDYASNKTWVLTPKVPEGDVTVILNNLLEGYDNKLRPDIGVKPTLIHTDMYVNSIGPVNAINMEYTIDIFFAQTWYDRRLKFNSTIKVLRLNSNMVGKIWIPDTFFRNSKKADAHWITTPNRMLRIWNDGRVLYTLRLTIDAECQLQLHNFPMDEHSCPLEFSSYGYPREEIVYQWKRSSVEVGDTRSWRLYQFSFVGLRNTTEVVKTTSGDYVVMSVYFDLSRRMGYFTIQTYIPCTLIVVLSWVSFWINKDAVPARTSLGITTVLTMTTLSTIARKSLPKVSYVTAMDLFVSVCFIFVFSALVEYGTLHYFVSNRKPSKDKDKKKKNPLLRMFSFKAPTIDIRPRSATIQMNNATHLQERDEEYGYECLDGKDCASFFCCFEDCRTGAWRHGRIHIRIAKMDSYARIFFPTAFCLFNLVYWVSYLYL

## CCn1cc(C(=O)O)c(=O)c2cc(NC3CCCc4ccccc43)c(Cl)cc21 (stereo not drawn) [compound 3, 7-chloro-1-ethyl-6-(1,2,3,4-tetrahydronaphthyl-1-amino)-4-oxo-1,4-dihydroquinoline-3-carboxylic acid]
[1]; initiated by 10 μM compound 3, 10 μM ivermectin, FIG. 12
  dissociation of [35S]TBPS binding in absence or presence of ivermectin: do not share a common site of action
[1]; initiated by 10 μM compound 3, 10 μM mefenamic acid, FIG. 13
  dissociation of [35S]TBPS binding in absence or presence of mefenamic acid: do not share a common site of action
[2]
  effect on [35S]TBPS binding in absence or presence of furosemide: does not act directly at the same site on the GRC as the loop-diuretic furosemide
BZ receptors
  effect on [3H]flunitrazepam binding to BZ receptors: allosterically coupled to and does not act directly on the BZ receptor
[3]
  potentiating effect on GABA induced chloride currents: positive efficacy modulator of GABA-gated chloride channels
[4]
  efficacy on GABA induced currents (IGABA): dose-dependent positive efficacy
